In one test the target is p38a/PRAK (Homo sapiens (Human), UniProt Q16539). The test can be described thus: biochemical. Conditions: 10-point 1:3 dilution, top dose 300 μM; 10 μM ATP, 2 h incubation; read-out: p38a/PRAK Enzyme pIC50 (converted). The protocol: (§1) Expression vectors of the recombinant MK2 and PRAK kinases were constructed by cloning of the codon optimized gene sequences of MK2 (Uniprot ID P49137, amino acid fragment F46-H400), or PRAK (Uniprot ID Q81W41, amino acid fragment M1-Q471) into pGEX-4T1 (GE) for over expression of these kinases with N-terminal GST-tag. Protein expression was carried out in E. coli BL21 by growing the hosts in TB medium, induction of protein expression with 0.5 mM IPTG at approximate 0.8 OD600, and incubation of the cultures at 18° C. for 14-20 hours afterwards. The harvested cells were resuspended in […] of Lysis buffer (50 mM Tris-HCl, pH 8.0, 500 mM NaCl, 1 mM DTT, 5% glycerol, and 1 mM PMSF) per gram of wet cell mass and homogenized at 4° C. in a microfluidizer (ATS, Suzhou, China) at 14,000 psi pressure, 3 passes. The cell lysates were clarified by centrifugation and the supernatants containing the GST-fusion proteins were purified by affinity chromatography using GSH-Sepharose (GE) gravity flow columns pre-equilibrated in Buffer A (50 mM Tris-HCl, pH 8.0, 500 mM NaCl, 1 mM DTT, and 5% glycerol). After thorough washing of the columns with Buffer A, the bound GST-proteins were eluted by Buffer B (50 mM Tris, pH 8.0, 500 mM NaCl, 1 mM DTT, 5% glycerol, 10 mM glutathione), followed by size-exclusion purification on Superdex 200 column equilibrated in Buffer A. The purified proteins were concentrated to approximately 1 mg/ml and stored at −80° C.
Chain of p38a/PRAK (Q16539 whole entry, the tested form may be a part): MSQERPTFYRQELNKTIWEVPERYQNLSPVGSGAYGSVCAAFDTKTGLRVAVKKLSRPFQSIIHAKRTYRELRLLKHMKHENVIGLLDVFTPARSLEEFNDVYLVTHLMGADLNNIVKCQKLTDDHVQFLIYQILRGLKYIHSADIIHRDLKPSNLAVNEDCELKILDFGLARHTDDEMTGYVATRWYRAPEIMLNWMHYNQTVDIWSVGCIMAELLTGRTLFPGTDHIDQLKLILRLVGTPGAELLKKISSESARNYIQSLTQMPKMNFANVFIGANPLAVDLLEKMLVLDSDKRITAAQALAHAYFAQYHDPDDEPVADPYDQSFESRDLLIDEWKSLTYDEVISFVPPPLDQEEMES
(§2) This study evaluates the inhibitory potency of invention compound on p38/MK2 pathway vs p38/PRAK pathway. More specially the compound concentration (IC50) was determined that inhibited half of the maximal activation of MK2 or PRAK by p38. MK2 activation study was set up without or with a serial of 10-point 1:3 dilution of invention compound at top dose of 1 or 10 μM, and PRAK activation study was set up without or with a serial of 10-point 1:3 dilution of invention compound at top dose of 300 μM. The MIK2 and PRAK activity were determined by the phosphorylation level of HSP27 peptide conjugated with FITC.

A further test deals with p38a/MK2 (Homo sapiens (Human), UniProt P49137+Q16539). As to the kind of experiment: biochemical. Conditions: 10-point 1:3 dilution, top dose 1 μM; 10 μM ATP, 2 h incubation; read-out: p38a/MK2 (1 μM) Enzyme pIC50 (converted). The protocol: as §1, §2
Chain of p38a/MK2 (Q16539 whole entry): as the sequence (Q16539 whole entry, the tested form may be a part) above
Chain of p38a/MK2 (P49137 46-400): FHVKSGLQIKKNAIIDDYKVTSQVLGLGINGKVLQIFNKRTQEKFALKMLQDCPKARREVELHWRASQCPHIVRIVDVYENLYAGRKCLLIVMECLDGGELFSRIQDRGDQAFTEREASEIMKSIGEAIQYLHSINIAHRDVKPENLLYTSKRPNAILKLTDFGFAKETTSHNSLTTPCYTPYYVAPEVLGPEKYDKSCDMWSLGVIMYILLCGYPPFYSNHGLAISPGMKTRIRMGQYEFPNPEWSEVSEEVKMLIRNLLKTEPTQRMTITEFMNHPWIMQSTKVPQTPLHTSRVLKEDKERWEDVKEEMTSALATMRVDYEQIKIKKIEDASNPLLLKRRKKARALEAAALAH

On to `Cc1cnc(-n2cccc(C(C)(C)O)c2=O)cc1-n1c(C)cc(OCc2ncc(Cl)cc2F)c(Cl)c1=O` (single isomer, unassigned) [Example 4B, rel-3-chloro-4-[(5-chloro-3-fluoropyridin-2-yl)methoxy]-2′-[3-(2-hydroxypropan-2-yl)-2-oxopyridin-1-yl]-5′,6-dimethyl-[1,4′-bipyridin]-2-one], for which the values for the IC50 at p38a/PRAK and at p38a/MK2 were above 316 µM and above 1000 nM, respectively.
Consider `Cc1cnc(-n2cccc(C3CCOCC3)c2=O)cc1-n1c(C)cc(OCc2ncc(F)cc2F)c(Cl)c1=O` (single isomer, unassigned) [Example 8A, rel-3-chloro-4-[(3,5-difluoropyridin-2-yl)methoxy]-5′,6-dimethyl-2′-[3-(oxan-4-yl)-2-oxopyridin-1-yl]-[1,4′-bipyridin]-2-one], for which the IC50 is 2.51 µM at p38a/PRAK and 0.794 nM at p38a/MK2.
As for `Cc1cnc(-n2cccc(C(C)C)c2=O)cc1-n1c(C)cc(OCc2ncc(F)cc2F)c(Cl)c1=O` (single isomer, unassigned) [Example 17A, rel-3-chloro-4-[(3,5-difluoropyridin-2-yl)methoxy]-2′-(3-isopropyl-2-oxopyridin-1-yl)-5′,6-dimethyl-[1,4′-bipyridin]-2-one], the IC50 on p38a/PRAK is 6.31 µM; at p38a/MK2, 1.58 nM.
The corresponding values for `Cc1cnc(-n2ccn(C(C)(C)CO)c2=O)cc1-n1c(C)cc(OCc2ncc(F)cc2F)c(Cl)c1=O` (single isomer, unassigned) [Example 27A, rel-3-chloro-4-[(3,5-difluoropyridin-2-yl)methoxy]-2′-[3-(1-hydroxy-2-methylpropan-2-yl)-2-oxoimidazol-1-yl]-5′,6-dimethyl-[1,4′-bipyridin]-2-one] are above 316 µM and above 100 nM.
On to `[2H]C([2H])(Oc1cc(C)n(-c2cc(-n3ccnc(C(C)(C)O)c3=O)ncc2C)c(=O)c1Cl)c1ncc(C)cc1F` (single isomer, unassigned) [Example 28B, rel-3-chloro-4-[(3-fluoro-5-methylpyridin-2-yl)(2H2)methoxy]-2′-[3-(2-hydroxypropan-2-yl)-2-oxopyrazin-1-yl]-5′,6-dimethyl-[1,4′-bipyridin]-2-one], for which the IC50 on p38a/PRAK is above 316 µM; at p38a/MK2 it was above 100 nM.
The corresponding values for `Cc1cnc(-n2cccc(C3(O)CCC3)c2=O)cc1-n1c(C)cc(OCc2ncc(F)cc2F)c(Cl)c1=O` (single isomer, unassigned) [Example 12A, rel-3-chloro-4-[(3,5-difluoropyridin-2-yl)methoxy]-2′-[3-(1-hydroxycyclobutyl)-2-oxopyridin-1-yl]-5′,6-dimethyl-[1,4′-bipyridin]-2-one] are 7.94 µM and 12.6 nM.
With `[2H]C([2H])(Oc1cc(C)n(-c2cc(-n3ccnc(C(C)(C)O)c3=O)ncc2C)c(=O)c1Cl)c1ncc(C)cc1F` (single isomer, unassigned) [Example 28A, rel-3-chloro-4-[(3-fluoro-5-methylpyridin-2-yl)(2H2)methoxy]-2′-[3-(2-hydroxypropan-2-yl)-2-oxopyrazin-1-yl]-5′,6-dimethyl-[1,4′-bipyridin]-2-one], the values for the IC50 on p38a/PRAK and on p38a/MK2 were 3.16 µM and 1 nM, respectively.
For `Cc1cnc(-n2cccc(C(C)(C)O)c2=O)cc1-n1c(C)nc(OCc2ncc(F)cc2F)c(Cl)c1=O` (single isomer, unassigned) [Example 25B, rel-4′-{5-chloro-4-[(3,5-difluoropyridin-2-yl)methoxy]-2-methyl-6-oxopyrimidin-1-yl}-3-(2-hydroxypropan-2-yl)-5′-methyl-[1,2′-bipyridin]-2-one], the IC50 at p38a/PRAK was above 316 µM; at p38a/MK2, 631 nM.
On to `Cc1cnc(-n2cccc(C(C)(C)O)c2=O)cc1-n1c(C)cc(OCc2ncc(F)cc2Cl)c(Cl)c1=O` (single isomer, unassigned) [Example 7B, rel-3-chloro-4-[(3-chloro-5-fluoropyridin-2-yl)methoxy]-2′-[3-(2-hydroxypropan-2-yl)-2-oxopyridin-1-yl]-5′,6-dimethyl-[1,4′-bipyridin]-2-one], for which the IC50 at p38a/PRAK is above 316 µM; on p38a/MK2 it was above 1000 nM.
Taken in the same sequence, the figures for `[2H]C([2H])(Oc1cc(C)n(-c2cc(-n3ccnc(C(C)(C)O)c3=O)ncc2C)c(=O)c1Cl)c1ncc(F)cc1Cl` (single isomer, unassigned) [Example 22B, rel-3-chloro-4-((3-chloro-5-fluoropyridin-2-yl)methoxy-d2)-2′-(3-(2-hydroxypropan-2-yl)-2-oxopyrazin-1(2H)-yl)-5′,6-dimethyl-2H-[1,4′-bipyridin]-2-one] were above 316 µM and above 100 nM.
The corresponding values for `Cc1cnc(-n2nccc(C(C)(C)O)c2=O)cc1-n1c(C)cc(OCc2ncc(F)cc2F)c(Cl)c1=O` (single isomer, unassigned) [Example 9B, rel-3-chloro-4-[(3,5-difluoropyridin-2-yl)methoxy]-2′-[5-(2-hydroxypropan-2-yl)-6-oxopyridazin-1-yl]-5′,6-dimethyl-[1,4′-bipyridin]-2-one] are above 316 µM and above 1000 nM.
On to `[2H]C([2H])(Oc1cc(C)n(-c2cc(-n3ccc(F)c(C(C)(C)O)c3=O)ncc2C)c(=O)c1Cl)c1ncc(F)cc1F` (single isomer, unassigned) [Example 26A, rel-3-chloro-4-[(3,5-difluoropyridin-2-yl)(2H2)methoxy]-2′-[4-fluoro-3-(2-hydroxypropan-2-yl)-2-oxopyridin-1-yl]-5′,6-dimethyl-[1,4′-bipyridin]-2-one], for which the IC50 at p38a/PRAK was 3.16 µM; on p38a/MK2 it was 2.51 nM.
Turning to `[2H]C([2H])(Oc1cc(C)n(-c2cc(-n3cccc(C(C)(C)O)c3=O)ncc2C)c(=O)c1Cl)c1ncc(F)cc1F` (single isomer, unassigned) [Example 18B, rel-3″-chloro-4″-((3,5-difluoropyridin-2-yl)methoxy-d2)-3-(2-hydroxypropan-2-yl)-5′,6″-dimethyl-2H,2″H-[1,2′:4′,1″-terpyridine]-2,2″-dione], the values for the IC50 at p38a/PRAK and on p38a/MK2 were above 316 µM and above 100 nM, respectively.
Turning to `Cc1cnc(-n2ccn(C(C)(C)CO)c2=O)cc1-n1c(C)cc(OCc2ncc(F)cc2F)c(Cl)c1=O` (single isomer, unassigned) [Example 27B, rel-3-chloro-4-[(3,5-difluoropyridin-2-yl)methoxy]-2′-[3-(1-hydroxy-2-methylpropan-2-yl)-2-oxoimidazol-1-yl]-5′,6-dimethyl-[1,4′-bipyridin]-2-one], the IC50 was 0.794 µM at p38a/PRAK and 12.6 nM on p38a/MK2.
Take `[2H]C([2H])(Oc1cc(C)n(-c2cc(-n3ccc(F)c(C(C)(C)O)c3=O)ncc2C)c(=O)c1Cl)c1ncc(F)cc1F` (single isomer, unassigned) [Example 26B, rel-3-chloro-4-[(3,5-difluoropyridin-2-yl)(2H2)methoxy]-2′-[4-fluoro-3-(2-hydroxypropan-2-yl)-2-oxopyridin-1-yl]-5′,6-dimethyl-[1,4′-bipyridin]-2-one]: the values for the IC50 on p38a/PRAK and at p38a/MK2 were above 316 µM and above 100 nM, respectively.
Consider `Cc1cnc(-n2cccc(C(C)(C)CO)c2=O)cc1-n1c(C)cc(OCc2ncc(F)cc2F)c(Cl)c1=O` (single isomer, unassigned) [Example 11B, rel-3-chloro-4-[(3,5-difluoropyridin-2-yl)methoxy]-2′-[3-(1-hydroxy-2-methylpropan-2-yl)-2-oxopyridin-1-yl]-5′,6-dimethyl-[1,4′-bipyridin]-2-one], for which the IC50 on p38a/PRAK was above 316 µM; on p38a/MK2, above 1000 nM.
Taken in the same sequence, the figures for `Cc1cnc(-n2cccc(C(C)(C)O)c2=O)cc1-n1c(C)cc(OCc2ncc(F)cc2Cl)c(Cl)c1=O` (single isomer, unassigned) [Example 7A, rel-3-chloro-4-[(3-chloro-5-fluoropyridin-2-yl)methoxy]-2′-[3-(2-hydroxypropan-2-yl)-2-oxopyridin-1-yl]-5′,6-dimethyl-[1,4′-bipyridin]-2-one] were 7.94 µM and 1 nM.
Consider `Cc1cnc(-n2ccnc(C(C)(C)O)c2=O)cc1-n1c(C)cc(OCc2ncc(F)cc2F)c(Cl)c1=O` (single isomer, unassigned) [Example 5B, rel-3-chloro-4-[(3,5-difluoropyridin-2-yl)methoxy]-2′-[3-(2-hydroxypropan-2-yl)-2-oxopyrazin-1-yl]-5′,6-dimethyl-[1,4′-bipyridin]-2-one], for which the IC50 at p38a/PRAK is above 316 µM; on p38a/MK2, above 1000 nM.

The record behind these values is US11685719B2, “Pyridinone MK2 inhibitors and uses thereof” (Xinthera, Inc., priority 2021, dated 2023).
